Experimental data from the supplement of paper PMC10307832.

What was measured:
Assay in all cases: relative viability (nuclei count vs DMSO), 5 days (fraction); higher = more cells survive
Afatinib + Bortezomib = compound: CN(C)C/C=C/C(=O)Nc1cc2c(Nc3ccc(F)c(Cl)c3)ncnc2cc1O[C@H]1CCOC1 [Afatinib] + CC(C)C[C@H](NC(=O)[C@H](Cc1ccccc1)NC(=O)c1cnccn1)B(O)O [Bortezomib] (partner 0.002 µM)
In short: (§1)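 Values are medians from duplicate plates. Each reflects relative viability, defined as the nuclei count of treated wells over that of vehicle wells. Lung cancer cell lines in 1536-well plates were pin-tool dosed one day after seeding with one drug alone or with a fixed anchor-drug dose plus five library-drug doses (not always all listed) in √10 steps, then fixed, stained and imaged at 4× after 5 days.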

Afatinib + Lapatinib = compound: CN(C)C/C=C/C(=O)Nc1cc2c(Nc3ccc(F)c(Cl)c3)ncnc2cc1O[C@H]1CCOC1 [Afatinib] + CS(=O)(=O)CCNCc1ccc(-c2ccc3ncnc(Nc4ccc(OCc5cccc(F)c5)c(Cl)c4)c3c2)o1 [Lapatinib] (partner 2 µM)
In short: as §1

Afatinib + AZD7762 = compound: CN(C)C/C=C/C(=O)Nc1cc2c(Nc3ccc(F)c(Cl)c3)ncnc2cc1O[C@H]1CCOC1 [Afatinib] + NC(=O)Nc1cc(-c2cccc(F)c2)sc1C(=O)N[C@H]1CCCNC1 [AZD7762] (partner 0.2 µM)
In short: as §1

Afatinib + Decitabine = compound: CN(C)C/C=C/C(=O)Nc1cc2c(Nc3ccc(F)c(Cl)c3)ncnc2cc1O[C@H]1CCOC1 [Afatinib] + Nc1ncn([C@H]2C[C@H](O)[C@@H](CO)O2)c(=O)n1 [Decitabine] (partner 2 µM)
In short: as §1

NCI-H1915
relative viability (Afatinib + Bortezomib; first compound 0.005 µM): 0.994 | relative viability (Afatinib + Bortezomib; first compound 0.01581 µM): 1 | relative viability (Afatinib + Bortezomib; first compound 0.05 µM): 0.938 | relative viability (Afatinib + Bortezomib; first compound 0.1581 µM): 1 | relative viability (Afatinib + Bortezomib; first compound 0.5 µM): 0.952 | relative viability (Afatinib + Lapatinib; first compound 0.005 µM): 1.02 | relative viability (Afatinib + Lapatinib; first compound 0.01581 µM): 0.944 | relative viability (Afatinib + Lapatinib; first compound 0.05 µM): 0.994 | relative viability (Afatinib + Lapatinib; first compound 0.1581 µM): 0.959 | relative viability (Afatinib + Lapatinib; first compound 0.5 µM): 0.876 | relative viability (Afatinib + AZD7762; first compound 0.005 µM): 0.67 | relative viability (Afatinib + AZD7762; first compound 0.01581 µM): 0.708 | relative viability (Afatinib + AZD7762; first compound 0.05 µM): 0.685 | relative viability (Afatinib + AZD7762; first compound 0.1581 µM): 0.723 | relative viability (Afatinib + AZD7762; first compound 0.5 µM): 0.682 | relative viability (Afatinib + Decitabine; first compound 0.005 µM): 0.269 | relative viability (Afatinib + Decitabine; first compound 0.01581 µM): 0.268 | relative viability (Afatinib + Decitabine; first compound 0.05 µM): 0.272 | relative viability (Afatinib + Decitabine; first compound 0.1581 µM): 0.268 | relative viability (Afatinib + Decitabine; first compound 0.5 µM): 0.269

NCI-H1975
relative viability (Afatinib + Bortezomib; first compound 0.005 µM): 0.358 | relative viability (Afatinib + Bortezomib; first compound 0.01581 µM): 0.345 | relative viability (Afatinib + Bortezomib; first compound 0.05 µM): 0.309 | relative viability (Afatinib + Bortezomib; first compound 0.1581 µM): 0.171 | relative viability (Afatinib + Bortezomib; first compound 0.5 µM): 0.189 | relative viability (Afatinib + Lapatinib; first compound 0.005 µM): 0.895 | relative viability (Afatinib + Lapatinib; first compound 0.01581 µM): 0.685 | relative viability (Afatinib + Lapatinib; first compound 0.05 µM): 0.529 | relative viability (Afatinib + Lapatinib; first compound 0.1581 µM): 0.283 | relative viability (Afatinib + Lapatinib; first compound 0.5 µM): 0.239 | relative viability (Afatinib + AZD7762; first compound 0.005 µM): 0.867 | relative viability (Afatinib + AZD7762; first compound 0.01581 µM): 0.676 | relative viability (Afatinib + AZD7762; first compound 0.05 µM): 0.538 | relative viability (Afatinib + AZD7762; first compound 0.1581 µM): 0.43 | relative viability (Afatinib + AZD7762; first compound 0.5 µM): 0.312 | relative viability (Afatinib + Decitabine; first compound 0.005 µM): 0.395 | relative viability (Afatinib + Decitabine; first compound 0.01581 µM): 0.283 | relative viability (Afatinib + Decitabine; first compound 0.05 µM): 0.391 | relative viability (Afatinib + Decitabine; first compound 0.1581 µM): 0.264 | relative viability (Afatinib + Decitabine; first compound 0.5 µM): 0.373

NCI-H1993
relative viability (Afatinib + Bortezomib; first compound 0.005 µM): 0.891 | relative viability (Afatinib + Bortezomib; first compound 0.01581 µM): 0.633 | relative viability (Afatinib + Bortezomib; first compound 0.05 µM): 0.678 | relative viability (Afatinib + Bortezomib; first compound 0.1581 µM): 0.692 | relative viability (Afatinib + Bortezomib; first compound 0.5 µM): 0.706 | relative viability (Afatinib + Lapatinib; first compound 0.005 µM): 0.835 | relative viability (Afatinib + Lapatinib; first compound 0.01581 µM): 0.848 | relative viability (Afatinib + Lapatinib; first compound 0.05 µM): 1.11 | relative viability (Afatinib + Lapatinib; first compound 0.1581 µM): 1.01 | relative viability (Afatinib + Lapatinib; first compound 0.5 µM): 0.848 | relative viability (Afatinib + AZD7762; first compound 0.005 µM): 0.548 | relative viability (Afatinib + AZD7762; first compound 0.01581 µM): 0.521 | relative viability (Afatinib + AZD7762; first compound 0.05 µM): 0.544 | relative viability (Afatinib + AZD7762; first compound 0.1581 µM): 0.432 | relative viability (Afatinib + AZD7762; first compound 0.5 µM): 0.416 | relative viability (Afatinib + Decitabine; first compound 0.005 µM): 0.552 | relative viability (Afatinib + Decitabine; first compound 0.01581 µM): 0.51 | relative viability (Afatinib + Decitabine; first compound 0.05 µM): 0.546 | relative viability (Afatinib + Decitabine; first compound 0.1581 µM): 0.509 | relative viability (Afatinib + Decitabine; first compound 0.5 µM): 0.578

NCI-H2085
relative viability (Afatinib + Bortezomib; first compound 0.005 µM): 1.01 | relative viability (Afatinib + Bortezomib; first compound 0.01581 µM): 0.902 | relative viability (Afatinib + Bortezomib; first compound 0.05 µM): 0.932 | relative viability (Afatinib + Bortezomib; first compound 0.1581 µM): 0.894 | relative viability (Afatinib + Bortezomib; first compound 0.5 µM): 0.975 | relative viability (Afatinib + Lapatinib; first compound 0.005 µM): 0.857 | relative viability (Afatinib + Lapatinib; first compound 0.01581 µM): 0.762 | relative viability (Afatinib + Lapatinib; first compound 0.05 µM): 0.851 | relative viability (Afatinib + Lapatinib; first compound 0.1581 µM): 0.743 | relative viability (Afatinib + Lapatinib; first compound 0.5 µM): 0.76 | relative viability (Afatinib + AZD7762; first compound 0.005 µM): 0.753 | relative viability (Afatinib + AZD7762; first compound 0.01581 µM): 0.957 | relative viability (Afatinib + AZD7762; first compound 0.05 µM): 0.897 | relative viability (Afatinib + AZD7762; first compound 0.1581 µM): 0.636 | relative viability (Afatinib + AZD7762; first compound 0.5 µM): 0.753 | relative viability (Afatinib + Decitabine; first compound 0.005 µM): 0.577 | relative viability (Afatinib + Decitabine; first compound 0.01581 µM): 0.522 | relative viability (Afatinib + Decitabine; first compound 0.05 µM): 0.519 | relative viability (Afatinib + Decitabine; first compound 0.1581 µM): 0.517 | relative viability (Afatinib + Decitabine; first compound 0.5 µM): 0.515

NCI-H2087
relative viability (Afatinib + Bortezomib; first compound 0.005 µM): 1.02 | relative viability (Afatinib + Bortezomib; first compound 0.01581 µM): 0.756 | relative viability (Afatinib + Bortezomib; first compound 0.05 µM): 0.867 | relative viability (Afatinib + Bortezomib; first compound 0.1581 µM): 0.8 | relative viability (Afatinib + Bortezomib; first compound 0.5 µM): 0.795 | relative viability (Afatinib + Lapatinib; first compound 0.005 µM): 0.973 | relative viability (Afatinib + Lapatinib; first compound 0.01581 µM): 1.07 | relative viability (Afatinib + Lapatinib; first compound 0.05 µM): 1.09 | relative viability (Afatinib + Lapatinib; first compound 0.1581 µM): 0.946 | relative viability (Afatinib + Lapatinib; first compound 0.5 µM): 0.929 | relative viability (Afatinib + AZD7762; first compound 0.005 µM): 1.15 | relative viability (Afatinib + AZD7762; first compound 0.01581 µM): 1.45 | relative viability (Afatinib + AZD7762; first compound 0.05 µM): 1.27 | relative viability (Afatinib + AZD7762; first compound 0.1581 µM): 1.31 | relative viability (Afatinib + AZD7762; first compound 0.5 µM): 1.21 | relative viability (Afatinib + Decitabine; first compound 0.005 µM): 0.336 | relative viability (Afatinib + Decitabine; first compound 0.01581 µM): 0.227 | relative viability (Afatinib + Decitabine; first compound 0.05 µM): 0.262 | relative viability (Afatinib + Decitabine; first compound 0.1581 µM): 0.209 | relative viability (Afatinib + Decitabine; first compound 0.5 µM): 0.25

NCI-H2126
relative viability (Afatinib + Bortezomib; first compound 0.005 µM): 1.11 | relative viability (Afatinib + Bortezomib; first compound 0.01581 µM): 1.04 | relative viability (Afatinib + Bortezomib; first compound 0.05 µM): 1.01 | relative viability (Afatinib + Bortezomib; first compound 0.1581 µM): 0.984 | relative viability (Afatinib + Bortezomib; first compound 0.5 µM): 0.852 | relative viability (Afatinib + Lapatinib; first compound 0.005 µM): 0.779 | relative viability (Afatinib + Lapatinib; first compound 0.01581 µM): 0.688 | relative viability (Afatinib + Lapatinib; first compound 0.05 µM): 0.686 | relative viability (Afatinib + Lapatinib; first compound 0.1581 µM): 0.761 | relative viability (Afatinib + Lapatinib; first compound 0.5 µM): 0.799 | relative viability (Afatinib + AZD7762; first compound 0.005 µM): 1.02 | relative viability (Afatinib + AZD7762; first compound 0.01581 µM): 1.02 | relative viability (Afatinib + AZD7762; first compound 0.05 µM): 0.822 | relative viability (Afatinib + AZD7762; first compound 0.1581 µM): 0.776 | relative viability (Afatinib + AZD7762; first compound 0.5 µM): 0.793 | relative viability (Afatinib + Decitabine; first compound 0.005 µM): 0.565 | relative viability (Afatinib + Decitabine; first compound 0.01581 µM): 0.519 | relative viability (Afatinib + Decitabine; first compound 0.05 µM): 0.595 | relative viability (Afatinib + Decitabine; first compound 0.1581 µM): 0.502 | relative viability (Afatinib + Decitabine; first compound 0.5 µM): 0.425

NCI-H2347
relative viability (Afatinib + Bortezomib; first compound 0.005 µM): 1.06 | relative viability (Afatinib + Bortezomib; first compound 0.01581 µM): 0.919 | relative viability (Afatinib + Bortezomib; first compound 0.05 µM): 0.81 | relative viability (Afatinib + Bortezomib; first compound 0.1581 µM): 0.865 | relative viability (Afatinib + Bortezomib; first compound 0.5 µM): 0.728 | relative viability (Afatinib + Lapatinib; first compound 0.005 µM): 0.934 | relative viability (Afatinib + Lapatinib; first compound 0.01581 µM): 0.985 | relative viability (Afatinib + Lapatinib; first compound 0.05 µM): 0.832 | relative viability (Afatinib + Lapatinib; first compound 0.1581 µM): 0.987 | relative viability (Afatinib + Lapatinib; first compound 0.5 µM): 0.996 | relative viability (Afatinib + AZD7762; first compound 0.005 µM): 0.568 | relative viability (Afatinib + AZD7762; first compound 0.01581 µM): 0.738 | relative viability (Afatinib + AZD7762; first compound 0.05 µM): 0.589 | relative viability (Afatinib + AZD7762; first compound 0.1581 µM): 0.725 | relative viability (Afatinib + AZD7762; first compound 0.5 µM): 0.541 | relative viability (Afatinib + Decitabine; first compound 0.005 µM): 0.602 | relative viability (Afatinib + Decitabine; first compound 0.01581 µM): 0.654 | relative viability (Afatinib + Decitabine; first compound 0.05 µM): 0.626 | relative viability (Afatinib + Decitabine; first compound 0.1581 µM): 0.592 | relative viability (Afatinib + Decitabine; first compound 0.5 µM): 0.592

NCI-H2405
relative viability (Afatinib + Bortezomib; first compound 0.005 µM): 1 | relative viability (Afatinib + Bortezomib; first compound 0.01581 µM): 0.953 | relative viability (Afatinib + Bortezomib; first compound 0.05 µM): 0.975 | relative viability (Afatinib + Bortezomib; first compound 0.1581 µM): 0.931 | relative viability (Afatinib + Bortezomib; first compound 0.5 µM): 1.01 | relative viability (Afatinib + Lapatinib; first compound 0.005 µM): 1.11 | relative viability (Afatinib + Lapatinib; first compound 0.01581 µM): 1.09 | relative viability (Afatinib + Lapatinib; first compound 0.05 µM): 1.33 | relative viability (Afatinib + Lapatinib; first compound 0.1581 µM): 1.04 | relative viability (Afatinib + Lapatinib; first compound 0.5 µM): 1.07 | relative viability (Afatinib + AZD7762; first compound 0.005 µM): 0.763 | relative viability (Afatinib + AZD7762; first compound 0.01581 µM): 0.759 | relative viability (Afatinib + AZD7762; first compound 0.05 µM): 0.839 | relative viability (Afatinib + AZD7762; first compound 0.1581 µM): 0.666 | relative viability (Afatinib + AZD7762; first compound 0.5 µM): 0.562 | relative viability (Afatinib + Decitabine; first compound 0.005 µM): 0.716 | relative viability (Afatinib + Decitabine; first compound 0.01581 µM): 0.764 | relative viability (Afatinib + Decitabine; first compound 0.05 µM): 0.703 | relative viability (Afatinib + Decitabine; first compound 0.1581 µM): 0.642 | relative viability (Afatinib + Decitabine; first compound 0.5 µM): 0.656
